{"source": "patent US12161753B2", "about": "“Sustained release biodegradable intracanalicular inserts comprising a hydrogel and an active agent” (OCULAR THERAPEUTIX, INC., priority 2020, dated 2024)", "key": {"[1]": {"assay": "Particle size of cyclosporine by laser diffraction (effect of surfactants)", "type": "physicochemical", "settings": "no surfactant"}, "[2]": {"assay": "Example 3.2 proof-of-concept PK study: tear fluid concentration and drug released from inserts", "type": "in vivo, beagle dogs", "settings": "beagle; insert 0.44 mg cyclosporine, 4a20K SG/trilysine; over 32 days", "source_text": "Inserts were removed at 32 days to determine the amount of remaining drug compared to the administered dose."}, "[3]": {"settings": "beagle, insert 0.7 mg cyclosporine, 4a20K SAZ/trilysine"}, "[4]": {"settings": "for Cyclosporine per insert (left in removed insert), OD: beagles, initial dose 671±13 μg"}, "[5]": {"test_system": "immunomodulation", "settings": "Tang-Liu and Acheampong, Clin. Pharmacokinet. 44(3); cited from earlier work"}}, "note": "Where “and” joins values, the source holds several entries; their conditions need not be identical. Equal entries are not always repeated. Where two headings read alike, the source gives them in different places.", "data": [{"compound": "CC=CCC(C)C(O)C1C(=O)NC(CC)C(=O)N(C)CC(=O)N(C)C(CC(C)C)C(=O)NC(C(C)C)C(=O)N(C)C(CC(C)C)C(=O)NC(C)C(=O)NC(C)C(=O)N(C)C(CC(C)C)C(=O)N(C)C(CC(C)C)C(=O)N(C)C(C(C)C)C(=O)N1C", "note": "(centres unmarked) [Cyclosporine, 30-ethyl-33-(1-hydroxy-2-methylhex-4-enyl)-1,4,7,10,12,15,19,25,28-nonamethyl-6,9,18,24-tetrakis(2-methylpropyl)-3,21-di(propan-2-yl)-1,4,7,10,13,16,19,22,25,28,31-undecazacyclotritriacontane-2,5,8,11,14,17,20,23,26,29,32-undecone]", "values": [{"measurement": "D10 [Average]", "setting": "[1]; in DIW", "result": 4, "unit": "μm"}, {"measurement": "D10 [Average]", "setting": "[1]; in PBS", "result": 4.1, "unit": "μm"}, {"measurement": "Estimated daily delivered dose", "setting": "[2]", "result": 6.3, "unit": "µg/day"}, {"measurement": "Average amount of cyclosporine released in 6 weeks", "setting": "[3]; inserts removed at 6 weeks", "result": 0.37, "unit": "mg"}, {"measurement": "Estimated daily delivered dose", "setting": "[3]; over 6 weeks", "result": 8.8, "unit": "µg/day"}, {"measurement": "Released amount", "setting": "[4]; beagle, insert 0.67 mg cyclosporine, 4a20K SG/trilysine, 28 days", "result": 3.4, "unit": "µg"}, {"measurement": "Released amount", "setting": "[4]; beagle, insert 0.67 mg cyclosporine, 4a20K SG/trilysine, 50 days", "result": 3.5, "unit": "µg"}, {"measurement": "Daily estimated delivered dose", "setting": "[4]; beagle, insert 0.67 mg cyclosporine, 4a20K SG/trilysine, over 28 and 50 days", "result": "approximately 3.5 μg/day"}, {"measurement": "Cyclosporine per insert (left in removed insert), OD", "setting": "[4]; insert removed at Day 28, single inserts", "result": 596, "unit": "µg"}, {"measurement": "Cyclosporine per insert (left in removed insert), OD", "setting": "[4]; insert removed at Day 50, single inserts", "result": "451 µg and 520 µg and 521 µg"}, {"measurement": "Cyclosporine concentration considered to be required for immunomodulation", "setting": "[5]", "result": 0.236, "unit": "µg/mL"}]}]}
